# How the values were obtained:
# Yumm1.5 tumors = test: Growth of Yumm1.5 melanoma tumors in prebiotic-fed mice; format: in vivo, C57BL/6 mice; conditions: mucin 3% in drinking water or inulin 15% w/w chow from 2 weeks prior to inoculation of 1×10^6 Yumm1.5 cells
# Source text: FIG. 2B, Quantification of tumor-infiltrating effector (CD44hi) CD4+, CD8+ and CD45+ T cells from mice treated as in FIG. 2A (n=10). FIG. 2C, Quantification of tumor-infiltrating, IFN-g-producing CD4+ T cells from mice treated as in FIG. 2A (n=10). FIG. 2D, Quantification of tumor-infiltrating total DCs and subsets in mice treated as in FIG. 2A (n=10). FIG. 2E, MFI of MHC class I and MHC class II on DCs from the tumors of mice treated as in FIG. 2A (n=10). […] Graphs show the mean s.e.m. *P<0.05, **P<0.005, ***P<0.001,****P<0.0001 by two-way ANOVA with Tukey's correction (A) and by one-way ANOVA with Tukey's correction (B-E).
# fecal microbiota = test: 16S rRNA amplicon sequencing of fecal microbiota, YUMM1.5 melanoma model; format: in vivo, C57BL/6 mice; conditions: YUMM1.5 model, TABLE 3
# Protocol: (§1) Bacterial DNA extraction and 16S library preparation. […] Mouse fecal pellets were frozen on dry ice, and stored at −80° C. Bacterial DNA was extracted using the QIAmp Fast DNA Stool Mini Kit (Qiagen). To ensure efficient cell lysis, a 5-min bead-beating step using a Mini-Beadbeater-16 was included (Biospec Products, OK, USA). Library preparation for the Illumina MiSeq platform was performed by amplification of the V3-V4 region of the bacterial 16S ribosomal DNA gene using
# (§2) C. Adapter and barcode sequences for dual indices were used as described by Illumina. PCR clean up steps were performed with QIAquick 96-PCR Clean up kit (Qiagen, Germany), and library quantification was performed using a KAPA Library Quantification Kit for Illumina platforms (KAPA Biosystems, MA, USA). An Experion Automated Gel Electrophoresis System (Bio-Rad, CA, USA) was used to measure the DNA concentration and purity of the pooled libraries. The 16S libraries were sequenced at Novagene (Beijing, China) and the SBP sequencing Core.
# 16S sequencing data processing. […] OSUs mapped to the same strains are grouped together (adding read counts) if percentage similarities are within 3%. Read counts are converted into relative abundance as described in HiMap. […]
# gut microbiota = format: in vivo, C57BL/6 mice; conditions: in the absence of MEKi
# Protocol: as §1, §2
# 16S sequencing data processing. The original FASTQ files from Illumina 250 basepair paired-end sequencing of the samples were processed using a novel 16S amplicon sequencing pipeline HiMap (http://github.com/taolonglab/himap; BioRxiv 565572). The output of HiMap is Operational Strain Unit (OSU) which contains one or more bacterial strains that best match the 16S sequence and cannot be further distinguished. The percentage similarity between the 16S sequence and the aligned region of 16S rRNA genes of the strains in the OSU is indicated. OSUs mapped to the same strains are grouped together (adding read counts) if percentage similarities are within 3%. Read counts are converted into relative abundance as described in HiMap. Log 10-transformed relative abundances were used for comparisons between samples under different experimental conditions.
# SW1 tumor cells = test: SW1 tumor growth in germ free mice colonized with minimal microbiota (ASF); format: in vivo, C3H/HeN mice; conditions: two weeks of mucin, 24 days
# Source text: Tumor size was monitored over the next 24 days (n=15).
# Animals and tumor models. All experimental animal procedures were approved by the Institutional Animal Care and Use Committee of Sanford Burnham Prebys Medical Discovery Institute (SBP) and complied with all relevant ethical regulations for animal testing and research. C57BL/6 mice were obtained from Sanford Burnham Prebys Medical Discovery Institute. OT-I mice were bred at SBP to CD45.1 mice (B6.SJLB6.SJL-Ptprc^a Pepc^b/BoyJ) that were obtained from Jackson Laboratories. C3H/HeOuJ mice were purchased from Jackson laboratories. Male 6-8-week-old mice were used for all experiments. […] Briefly, fresh feces were collected and analyzed by bacterial 16S rRNA gene-specific PCR (30 cycles, universal bacteria primers 8F and 1391R) in combination with aerobic and anaerobic culture of feces in Brain Heart Infusion, Wilkins-Chalgren and Yeast Mold broths, and on Tryptic Soy Agar plates (all media from Difco™ Becton Dickinson) at 37° C. for 7 days. […] Briefly, genomic DNA was extracted from fecal samples and ASF bacteria were quantified by qPCR with species-specific primers. […] Tumor size was measured twice a week for calculation of tumor volume. […]
# In order to test the requirement for gut microbiota in prebiotic-induced tumor control, experiments were conducted using mice with a defined, minimal microbiota. […] Tumor size was monitored over the next 24 days.
# CD8+ T cells = test: qRT-PCR of cytokine and chemokine mRNAs in CD8+ T cells in vitro; format: cell-based, mice; conditions: 0.05 or 0.5 mg/ml in vitro; in some conditions
# Source text: Data are representative of two independent experiments. Graphs show the mean±s.e.m. *P<0.05, **P<0.005, ***P<0.001, ****P<0.0001 one-way ANOVA with Tukey's correction.
# RNA extraction and qRT-PCR analyses. Total RNA was extracted from tumor samples individually using the RNeasy Fibrous Tissue Midi kit (QIAGEN) or cells treated as indicated using High Capacity Reverse Transcriptase kits (Invitrogen) according to the manufacturer's protocol. Purity and concentration of extracted RNA were checked and quantified by reading at 260 and 280 nm in a NanoDrop spectrophotometer (Thermo Fisher). The qRT-PCR analyses were performed using Syber Green RT-PCR kits (Invitrogen) on a Bio-Rad CFX Connect Real-Time system. Expression levels normalized to 18S or Tubb5 controls.
substance,measurement,setting,value
mucin,melanoma tumor growth,Yumm1.5 tumors,attenuated
same,taxa enriched,fecal microbiota,predominantly enriched taxa with similarity to members of Clostridium cluster XIVa
same,phylotype group related to Parasutterella excrementihominis,gut microbiota,not observed
same,taxa increased in relative abundance,gut microbiota,primarily increased the relative abundance of taxa mapped in or near Clostridium cluster XIVa
same,SW1 tumor growth,SW1 tumor cells,failed to attenuate tumor growth
same,"expression of Granzyme B, CCL4, and CCL5 in CD8+ T cells",CD8+ T cells,enhanced expression

# Reference: patent publication US20220370553A1, “PREBIOTIC-INDUCED ANTI-TUMOR IMMUNITY” (Sanford Burnham Prebys Medical Discovery Institute, priority 2019, published 2022)
